From US20080051393A1, “Novel cannabinoids and methods of use” (Eastern Virginia Medical School, priority 2006, published 2008)

Legend:
[1] = system: ICR mice; test: Tetrad model: relative immobility (RI), ring-immobility test; type: in vivo; settings: Mus musculus, iv, 40 min; i.v., ring immobility 40 min after injection; read-out: R.I. ED50
Excerpt: (§1) ICR Mice and Materials. Male ICR mice (Harlan Laboratories, Indianapolis, Ind.) weighing between 24 to 30 g were used in all experiments. Mice were maintained on a 14:10-hr light/dark cycle with food and water available ad lib. All test groups consisted of 6 to 12 mice. Analogs dissolved in a vehicle consisting of ethanol, emulphor and saline in a ratio of 1:1:18. All chemicals for receptor binding studies were purchased from Sigma (St. Louis, Mo.) except the following: Dulbeco's modified Eagle's medium (DMEM) from GIBCO BRL (Grand Island, N.Y.), Whatman GF/B glass fiber filters from Fischer Scientific (Pittsburg, Pa.), fetal calf serum (FCS) and fetal bovine serum (FBS) from HyClone Laboratories (Logan, Utah) and Budget-Solve scintillation fluid from RPI Corp. (Mount Prospect, Ill.).
Rectal temperature was measured 30 min after the i.v. injection. The change in rectal temperature (Δ° C.) following analog administration was calculated for each animal. Relative immobility (catalepsy) was measured 40 min after the i.v. injection by the ring-immobility test. Mice were placed on a ring 5.5 cm in diameter attached to a stand at a height of 16 cm. The amount of time the mice spent motionless on the ring during the 5-minute procedure was measured, with the criteria of immobility being defined as the absence of all voluntary movements, including whisker movement, but excluding respiration. The percent immobility was calculated as: % immobility=[time immobile (sec)]/[length of session (sec)]×100. Mice that fell from the ring or actively jumped were allowed five attempts. After the fifth escape these mice were removed from the ring and not included in the calculations. Data were collected from 6-12 mice for each condition tested.
(§2) Data analysis. Based on data obtained from numerous previous in vivo studies with cannabinoids, maximal cannabinoid effects in each in vivo pharmacological procedure were estimated as follows: 90% inhibition of spontaneous activity, 100% MPE in the tail flick procedure, and −6° C. change in rectal temperature. Means and standard error (S.E.) were calculated for % MPE, number of photocell disruptions, % ring immobility and Δ° C. Analysis of variance (ANOVA) was used to determine significant differences between control and treatment groups followed by Dunnett's t-test post-hoc analysis. Statistical analysis was performed using StatView, version 5.0 (SAS Institute, Cary, N.C.). Significance was defined as a “p”<0.05. ED50's were defined as the dose at which half maximal effect occurred. For drugs that produced one or more cannabinoid effect, ED50's were calculated separately using least-squares linear regression on the linear part of the dose-effect curve for each measure in the mouse tetrad, plotted against log10 transformation of the dose.

[2] = system: ICR mice; test: Tetrad model: antinociception in the tail-flick procedure (TF); type: in vivo; settings: Mus musculus, iv, 20 min; i.v., tail-flick 20 min after injection; read-out: T.F. ED50
Excerpt: as §1
(§3) Behavioral Evaluations. All animals were allowed to acclimate to the observation room overnight. Behavioral effects were assessed in the tetrad model to measure potency in decreasing spontaneous activity (SA), antinociception [tail-flick procedure, TF], rectal temperature (RT) and relative immobility (RI) catalepsy. The baselines for tail-flick latency (2-4 sec) and rectal temperature were determined prior to i.v. injections. Baseline rectal temperatures were measured using a telethermometer and a thermometer probe inserted to 25 mm (Yellow Springs Instrument Co., Yellow Springs, Ohio). The mice treated i.v. with an analog were placed in individual photocell activity chambers 5 min later. Spontaneous activity wasp monitored for 10 min in a Digiscan Animal Activity Monitor (Omnitech Electronice, Inc., Columbus, Ohio) as measured by the number of interruptions of 16 photocell beams per chamber. The total number of beam interruptions during the 10-min period was determined and presented as total counts. The mice were then assessed at 20 min following the i.v. injection for antinociception using the tail-flick reaction time to a heat stimulus. A 10-sec maximum latency was used in order to avoid tail injury. The results are presented as % MPE and are calculated as follows: % MPE=[(test latency-control latency)/(10 sec−control latency)]×100.
as §2

[3] = system: ICR mice; test: Tetrad model: inhibition of spontaneous activity (SA); type: in vivo; settings: Mus musculus, iv, spontaneous activity 5-15 min after injection; read-out: S.A. ED50
Excerpt: as §1, §3, §2

[4] = biological target: T1, human CB1 receptor (Homo sapiens, UniProt P21554); test: CB1 receptor binding, [3H]CP55,940 displacement; settings: HEK-293 membranes, means ± SE, N = 3
T1 construct: expressed in transfected cells; host or cells: HEK-293
T1 sequence (P21554 whole entry): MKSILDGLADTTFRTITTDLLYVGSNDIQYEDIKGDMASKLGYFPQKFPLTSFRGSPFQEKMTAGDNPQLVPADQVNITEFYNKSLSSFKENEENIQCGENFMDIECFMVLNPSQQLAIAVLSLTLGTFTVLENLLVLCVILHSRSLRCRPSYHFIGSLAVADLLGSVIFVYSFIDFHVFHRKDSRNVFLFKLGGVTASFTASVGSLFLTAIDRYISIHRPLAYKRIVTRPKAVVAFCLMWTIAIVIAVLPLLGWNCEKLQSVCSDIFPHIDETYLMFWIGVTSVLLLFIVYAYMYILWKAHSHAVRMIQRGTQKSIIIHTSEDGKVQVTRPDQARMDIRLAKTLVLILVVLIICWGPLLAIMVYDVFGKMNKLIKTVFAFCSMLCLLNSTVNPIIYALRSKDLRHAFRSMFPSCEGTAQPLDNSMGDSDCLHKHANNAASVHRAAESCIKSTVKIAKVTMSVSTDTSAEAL
Procedure: (§4) Membrane Preparations. HEK-293 cells stably expressing the human CB1 receptor were cultured in DMEM with 10% FBS and Chinese Hamster Ovary (CHO) cells stably expressing the human CB2 receptor were cultured in DMEM with 10% FCS. Cells were harvested by replacement of the media with cold phosphate-buffered saline containing 1 mM EDTA followed by centrifugation at 1000×g for 5 min at 4° C. The pellet was resuspended in 50 mM Tris-HCl containing 320 mM sucrose, 2 mM EDTA and 5 mM MgCl2 (pH 7.4) (centrifugation buffer), then centrifuged at 1000×g for 10 min at 4° C. and the resulting supernatant was saved. This process was repeated twice. The supernatant fractions were combined and centrifuged at 40,000×g for 30 min at 4° C. The resulting P2 pellet was resuspended in assay buffer (50 mM Tris-HCl (pH 7.4), 3 mM MgCl2, 0.2 mM EGTA, and 100 mM NaCl) and protein was measured. Membranes were stored at −80° C. until use.
(§5) Receptor Binding. Membrane homogenates (50 μg) were incubated with 0.5 nM [^3H]CP55,940 in the presence of varying concentrations (1 nM-10 μM) of test compounds in 0.5 ml of buffer containing BSA (5 mg/ml). Non-specific binding was measured in the presence of 1 μM CP55,940. The assay was incubated at 30° C. for 1 hr and terminated by addition of ice cold 50 mM Tris-HCl+BSA (1 mg/ml) (pH 7.4) followed by filtration under vacuum through Whatman GF/B glass fiber filters with 3 washes with cold Tris buffer. Bound radioactivity was determined by liquid scintillation spectrophotometry at 50% efficiency after extraction by shaking samples for 30-60 min with Budget-Solve scintillation fluid. Data are reported as the mean ±SEM of three experiments, each performed in triplicate. Ki values were calculated from displacement data using EBDA (Equilibrium Binding Data Analysis; BIOSOFT, Milltown, N.J.).

[5] = biological target: T2, human CB2 receptor (Homo sapiens, UniProt P34972); test: CB2 receptor binding, [3H]CP55,940 displacement; settings: CHO membranes, means ± SE, N = 3
T2 construct: expressed in transfected cells; host or cells: CHO
T2 sequence (P34972 whole entry): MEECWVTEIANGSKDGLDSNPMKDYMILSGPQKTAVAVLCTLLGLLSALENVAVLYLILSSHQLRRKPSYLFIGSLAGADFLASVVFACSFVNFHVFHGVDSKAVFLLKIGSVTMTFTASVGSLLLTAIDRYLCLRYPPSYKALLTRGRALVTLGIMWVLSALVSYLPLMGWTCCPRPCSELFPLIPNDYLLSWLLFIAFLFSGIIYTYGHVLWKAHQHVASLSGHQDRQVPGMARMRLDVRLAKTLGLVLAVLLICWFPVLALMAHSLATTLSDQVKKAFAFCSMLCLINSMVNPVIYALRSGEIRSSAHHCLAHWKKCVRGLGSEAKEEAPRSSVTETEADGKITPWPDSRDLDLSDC
Procedure: as §4, §5

[6] = system: retinal ganglionic cells (RGC); test: Rat NMDA model: retinal flat mounts, RGC count; type: in vivo; settings: NMDA treatment only
Procedure: Rat NMDA Model. To mimic glaucomatous damage to the retina without a potentially confounding effect on IOP, retinal damage was induced by NMDA in a rat model. Following baseline measurements, e.g. IOP, ERG, slit lamp, fundus photography, heart rate and blood pressure, N-methyl D-aspartate (NMDA, 2 μl of 10 mM) was injected intravitreally to induce RGC damage. […] For positive identification, a hand scanner was used each time the rat was examined. This was necessary since the examiners will be masked as to treatment group. Treatment groups consisted of either NMDA only (control), O-1812 (0.1%) or O-2545 (0.1%), O-1812 (0.1%)+SR-141716 (2 mM), O-2545 (0.1%)+SR-141716 (2 mM), O-1812 (0.1%)+SR-144258 (2 mM) and O-2545 (0.1%)+SR-144258 (2 mM). All experiments were conducted in accordance with the policies of the Institutional Animal Care and Use Committee and the ARVO policy on use of animals in experiments. A minimum of two baseline ERG measurements was recorded 1 wk prior, 1 wk and 2 wk post injection. At the end of each experiment, rats were sacrificed and their eyes were preserved for histological assessment of effects on the retina and optic nerve.
Histology. For retinal flat mounts, retinas were dissected from formalin fixed whole eyes, mounted on superfrost glass slides, stained with hematoxylin and eosin and digitally photographed. For analysis, the retina was divided into four quadrants. A minimum of five 50 μm^2 sections per quadrant were used to count cell number. The cell sections were selected to be equidistant from the optic cup for all quadrants. For optic nerve experiments, the optic nerve was dissected at the margin of the optic disk and embedded in cryo media. Sections of 10 μm thickness were cut and mounted on superfrost glass slides and stained with hematoxylin and eosin. The slides were digitally photographed.

[7] = system: IOP in a rat glaucoma model; test: Combination therapy: IOP in a rat glaucoma model; type: in vivo, Sprague Dawley rats
Excerpt: (§6) Rat Glaucoma Model. Compared to acute studies, a chronic rat model of glaucoma was generated. The rats were made glaucomatous by ligating three vortex veins (Hosseini, A. et al. (2006) Chronic topical administration of WIN-55-212-2 maintinas a reduction in IOP in a rat glaucoma model without adverse effects. Exp. Eye Res. 82(5):753-9). More specifically, ocular hypertension was induced in Sprague-Dawley rats by ligating 3 of 4 episcleral veins of the right eye using 9.0 nylon sutures under anesthesia with 3 mg/Kg acepromazine and 20 mg/Kg ketamine. Within 6 wk, IOP increased by at least 5 mm Hg in the operated eye. This intervention produced at least a 30% increase in IOP in the operated eye and lasted for up to 60 weeks. During this time, a 30% loss of retinal function was documented by ERG. […] Thus, the model accurately mimics the progressive damage that occurs in patients with glaucoma.
(§7) Measurements of Intraocular Pressure. IOP elevation was measured under mild sedation using a calibrated Goldmann tonometer modified for rats. Three determinations were averaged for each eye. To account for diurnal variation, all IOP's were measured between 11 am and 1 pm during the daily trough period.
Combination Therapy. Since cannabinoids and timolol, which are both known to reduce IOP, have different mechanisms of action, there is potential for a synergistic effect. The combination of timolol and a synthetic cannabinoid (WIN55 212-2, O-1812, or O-2545) to reduce IOP in a chronic rat model of ocular hypertension was examined. Surgical ligation of three of the four episcleral veins in one eye of Sprague Dawley rats caused a long lasting (>44 week) increase in IOP. IOP was measured by Goldmann tonometry at baseline (−30), 0, 30, 60 and 120 min, as was heart rate and blood pressure. For combination therapy, after baseline IOP measurement, timolol 0.5% was applied topically followed 30 min later by WIN55 212-2 1.0%, O-1812 1.0%, or O-2545 1.0%. In another experiment, O-1812 1.0% and O-2545 1.0% were administered simultaneously. An analysis for ocular irritation was performed by slit lamp examination (SLE) at baseline and 150 min.

[8] = system: IOP in a rat glaucoma model; test: IOP after topical application in chronic rat glaucoma model; type: in vivo, Sprague-Dawley rats; settings: 1.0% topical
Excerpt: as §6, §7
Therapeutic Regimen. For IOP Measurements (Topical application) Baseline IOP, heart rate, blood pressure and normal ocular anatomy were documented prior to drug administration. The drugs WIN 55-212-2 (0.1%, 1.0%), O-1812 (0.01%, 0.1%, 1.0%), O-2545 (0.1%, 1.0%) were all dissolved in Tocrisolve™ (vehicle). IOP, heart rate, and blood pressure were measured prior to and after 30, 60 and 120 min after topical administration. Contralateral eyes served as vehicle treated controls.

Structure (SMILES) | ED50 [1] [mg/kg] | ED50 [2] [mg/kg] | ED50 [3] [mg/kg] | Ki [4] [nM] | Ki [5] [nM] | Reduction of RGC cell density [6] [%] | IOP at 120 min (% Baseline) ([7]; 0.5% topical alone, 120 min) | Time for which IOP was significantly decreased ([7]; timolol alone, prior experiments in this model) [min] | Time for which significant IOP reduction was maintained [8] | Effect on IOP at 30 min ([8]; 30 min) | IOP after 60 min (% of Baseline) ([8]; 60 min)
C[C@H](CO)NC(=O)CCC/C=C\C/C=C\C/C=C\C/C=C\C(C)(C)CCCCn1cccn1 [Compound O-2954] | 0.57 | 0.19 | 0.14 | 127 ± 2.84 | 301 ± 35.6 |  |  |  |  |  | 
C[C@H](CO)NC(=O)CCC/C=C\C/C=C\C/C=C\C/C=C\C(C)(C)CCCCn1cncn1 [Compound O-2955] | 2.21 | 1.94 | 2.03 | 298 ± 33.9 | 215 ± 40.5 |  |  |  |  |  | 
C[C@H](CO)NC(=O)CCC/C=C\C/C=C\C/C=C\C/C=C\C(C)(C)CCCCN1CCOCC1 [Compound O-4316] | 0.03 | 0.04 | 0.11 | 3.88 ± 0.22 | 22.4 ± 0.43 |  |  |  |  |  | 
C[C@H](CO)NC(=O)CCC/C=C\C/C=C\C/C=C\C/C=C\C(C)(C)CCCCn1ccnc1 [Compound O-4368] | 0.25 | 0.29 | 0.68 | 90.5 ± 5 | 153 ± 5 |  |  |  |  |  | 
C[C@H](CO)NC(=O)CCC/C=C\C/C=C\C/C=C\C/C=C\C(C)(C)CCCCN1CCCCC1 [Compound O-4386] | 0.7 | 0.55 | 0.79 | 92.8 ± 2.2 | 226 ± 24 |  |  |  |  |  | 
C[C@H](CO)NC(=O)CCC/C=C\C/C=C\C/C=C\C/C=C\C(C)(C)CCCCN1CCCC1 [Compound O-4388] | 0.84 | 0.38 | 0.42 | 99.4 ± 5.9 | 404 ± 39 |  |  |  |  |  | 
CN[C@H](CC(=O)O)C(=O)O [NMDA, N-methyl D-aspartate, reference compound] |  |  |  |  |  | 49 |  |  |  |  | 
CC(C)(C)NC[C@H](O)COc1nsnc1N1CCOCC1 [Timolol, timolol] |  |  |  |  |  |  | 91.5 ± 10.2 | 30 |  |  | 
Cc1c(C(=O)c2cccc3ccccc23)c2cccc3c2n1[C@@H](CN1CCOCC1)CO3 [WIN 55-212-3, reference compound] |  |  |  |  |  |  |  |  | up to 120 min | significantly lowered | 86.5 ± 2.5 % of Baseline
